According to publication PMC3386426 (Journal of Medicinal Chemistry, 2012):
Read-outs that look alike come from different tables or passages of the source.

Columns and labels:
[1] = tested on: L1210 murine leukemia cell line; experiment: cell growth inhibition in a cytotoxic assay with L1210; type: cell-based
[2] = tested on: L1210 murine leukemia cells; experiment: in vivo antitumor model, L1210 cells implanted ip into mice
[3] = tested on: L1210 murine leukemia cells; conditions: previously established; cited from earlier work
[4] = chemical reactivity/stability under acidic, basic and nucleophilic conditions; type: physicochemical
DNA = DNA alkylation in cell-free systems; type: biochemical
[5] = human plasma
[6] = tested on: L1210 murine leukemia cell line; conditions: natural enantiomer; cited from earlier work

**Q.** For `Nc1cccc2c1C(=O)C=C1N(C(=O)c3cc4cc(NC(=O)c5cc6ccccc6[nH]5)ccc4[nH]3)CC3CC123` (racemic) [(±)-20, N-(2-(5-Amino-4-oxo-1,2,9,9a-tetrahydrocyclopropa[c]benzo[e]indole-2-carbonyl)-1H-indol-5-yl)-1H-indole-2-carboxamide], which “fold less active than 4 (active enantiomer of 20)” value ([1]; L1210, inferred for the active enantiomer from the racemate) is on record?
**A.** 3–4 fold

**Q.** Which “long term cures (>250 days)” value ([2]; 9000 μg/kg ip on days 1, 5, 9) does the source give for `O=C1Nc2cccc3c4c(cc(c23)O1)N(C(=O)c1cc2cc(NC(=O)c3cc5ccccc5[nH]3)ccc2[nH]1)CC4CCl` (single isomer, unassigned; (+)) [(+)-6, N-(2-(10-(Chloromethyl)-5-oxo-5,8,9,10-tetrahydro-4H-pyrrolo[3',2':5,6]naphtho[1,8-de][1,3]oxazine-8-carbonyl)-1H-indol-5-yl)-1H-indole-2-carboxamide] here?
**A.** 5/10

**Q.** And the “antitumor activity over dose range” value ([2]; 300 to 9000 μg/kg ip on days 1, 5, 9 (30-fold range))?
**A.** productive antitumor activity over the entire and much larger dose range examined

**Q.** What does the source list for `O=C(Nc1ccc2[nH]c(C(=O)N3C[C@H](CCl)c4c3cc(O)c3ccccc43)cc2c1)c1cc2ccccc2[nH]1` [Compound 4, seco-CBI-indole2]?
**A.** IC50 ([1]; Mus musculus, L1210, L1210 cell line): 0.03 nM; T/C (percent survival) ([2]; 60 μg/kg ip on days 1, 5, 9): 197; long term (250 days) survivors ([2]; 60 μg/kg ip on days 1, 5, 9): 1/10; toxicity (premature death of the animals) ([2]; doses of 100–500 μg/kg ip on days 1, 5, 9): toxic; optimal dose range [3]: 60 to 100 µg/kg

**Q.** Which “times more potent than its N-Boc precursor 16” value ([1]; L1210, relative to 16) does the source give for `O=C1Nc2cccc3c4c(cc(c23)O1)N(C(=O)c1cc2cc(NC(=O)c3cc5ccccc5[nH]3)ccc2[nH]1)CC4CCl` (centres unmarked) [Compound 6, N-(2-(10-(Chloromethyl)-5-oxo-5,8,9,10-tetrahydro-4H-pyrrolo[3',2':5,6]naphtho[1,8-de][1,3]oxazine-8-carbonyl)-1H-indol-5-yl)-1H-indole-2-carboxamide] here?
**A.** 100 to 1000 times

**Q.** What about the “stability under acidic conditions” value ([4]; 1:1 TFA:CH2Cl2, 4 N HCl in EtOAc, up to 72 h at 23 °C) of the same compound?
**A.** stable

**Q.** And the DNA alkylation (DNA)?
**A.** incapable of alkylating DNA

**Q.** What about the free drug release [5] of the same compound?
**A.** 5%

**Q.** Which results are given for `CC(C)(C)OC(=O)N1C[C@@H](CCl)c2c1cc1c3c(cccc23)NC(=O)O1` [Compound 16, tert-Butyl 10-(Chloromethyl)-5-oxo-9,10-dihydro-4H-pyrrolo[3',2':5,6]naphtho[1,8-de][1,3]oxazine-8(5H)-carboxylate]?
**A.** fold less active than N-Boc-CBI ([1]; L1210, relative to N-Boc-CBI): 50–100 fold; stability of cyclic carbamate to hydrolysis under acidic conditions ([4]; 1:1 TFA:CH2Cl2, 4 N HCl in EtOAc, 48 h at 23 °C): stable; stability to nucleophiles BnSH and BnOH ([4]; 100 equiv in MeOH and THF at 23 °C for 48 h): completely stable; stability to BnNH2 in MeOH ([4]; BnNH2 (100 equiv) in MeOH, 24 h): rapidly cleaved; stability to BnNH2 in THF ([4]; BnNH2 in THF): stable; hydrolysis of cyclic carbamate with NaHCO3 ([4]; NaHCO3 in protic solvents): slowly hydrolyzed; stability to organic bases ([4]; organic bases in aprotic solvents): stable

**Q.** For `CC(C)(C)OC(=O)N1C[C@H]2C[C@@]23C1=CC(=O)c1ccccc13` [N-Boc-CBI], which IC50 [6] is on record?
**A.** 80 nM
